From patent US20240327406A1, “POTASSIUM CHANNEL MODULATORS” (Autifony Therapeutics Limited, priority 2021, published 2024)
Marks after values point to notes of the source that are not given here.

Tests used:
[1] = In vitro metabolic stability, rat liver microsomes; format: in vitro ADME; conditions: CLint expressed as mL/min/g liver
Procedure: (§1) The objective of this study was to determine metabolic stability of test items in rat and human liver microsomes. Verapamil and dextromethorphan were used as positive controls for microsomal incubation.
(§2) Incubation medium was prepared by combining 11.2 mL of potassium phosphate monobasic and 38.8 mL of potassium phosphate dibasic, diluted to 1 L with water. Cryopreserved microsomes were thawed and kept on ice until use. Microsomes were then diluted in incubation to a protein concentration of 0.56 mg/mL. […]
(§3) NADPH regenerating system solution was prepared by dissolving 1.7 mg of NADP, 7.8 mg of G6P and 6 units of G6P-Dehydrogenase in 1 mL of 2% sodium bicarbonate solution (prepared by dissolving 20 g of NaHCO3 in 1 L of water).
(§4) Test compounds were separately dissolved in DMF to obtain 10 mM stock solutions that were further diluted in water/acetonitrile 50/50 (v/v) to obtain the corresponding 50 μM working solutions. Verapamil and dextromethorphan were dissolved in DMF in order to obtain a 10 mM verapamil solution and 10 mM dextromethorphan solution. These solutions were then diluted in the incubation medium in order to obtain a 50 μM verapamil working solution and a 50 μM dextromethorphan working solution.
(§5) 800 μL-aliquots of NADPH regenerating system were pre-warmed at 37° C. for 5 minutes. 5 μL of 50 µM test compounds, verapamil or dextromethorphan were added to 445 μL of the 0.56 mg/mL microsomes solution and the incubation mixture was pre-warmed in a 96 deep well 2 mL plate (incubation plate) at 37° C. for 5 minutes. The incubation reactions were initiated by adding 50 μL of pre-warmed NADPH regenerating system to the incubation mixtures. 50 μL aliquots were taken from incubation mixtures at: 0, 3, 6, 9, 15, and 30 minutes and the reactions were stopped by adding 100 μL of aceronitrile with the corresponding internal standard. Samples were then diluted with 120 μL of water (final organic solvent percentage at 37%) and centrifuged at 3000 rpm for 10 minutes, prior the LC-MS/MS analysis.
(§6) Metabolic stability was calculated from the peak area ratio of the remaining test compound with internal standard versus time. The intrinsic clearance (CLint) was determined from the first order elimination constant k (min^−1) (obtained from GraphPad by plotting the natural logarithm of the peak area ratio of the remaining test item with internal standard versus time), using the actual volume of the incubation V (mL), the amount of hepatocytes in the incubation M (million cells) and the hepatocellularity number per a liver Hn (120 for human).

Kv3.1 = target: T1, Kv3.1 (Homo sapiens, UniProt P48547); conditions: Table 5, RE12 and RE13; based on EC50 value as reported in WO2021214090; cited from earlier work
T1 sequence (P48547 1-511): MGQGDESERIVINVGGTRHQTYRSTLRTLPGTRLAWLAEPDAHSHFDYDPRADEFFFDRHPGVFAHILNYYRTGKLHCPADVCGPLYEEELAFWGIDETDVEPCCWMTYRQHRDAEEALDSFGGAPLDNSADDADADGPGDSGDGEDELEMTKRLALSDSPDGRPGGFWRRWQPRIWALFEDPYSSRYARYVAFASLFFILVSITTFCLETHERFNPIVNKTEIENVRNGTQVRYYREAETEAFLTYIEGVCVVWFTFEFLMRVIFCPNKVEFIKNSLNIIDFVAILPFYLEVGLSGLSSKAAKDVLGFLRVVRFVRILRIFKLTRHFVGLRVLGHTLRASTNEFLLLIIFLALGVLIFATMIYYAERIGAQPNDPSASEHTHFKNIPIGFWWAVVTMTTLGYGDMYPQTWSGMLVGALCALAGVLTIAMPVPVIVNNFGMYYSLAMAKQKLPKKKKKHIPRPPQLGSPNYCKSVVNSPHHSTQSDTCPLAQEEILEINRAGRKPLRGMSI

[2] = In vitro metabolic stability, human liver microsomes; format: in vitro ADME; conditions: CLint expressed as mL/min/g liver
Procedure: as §1, §2, §3, §4, §5, §6

[3] = Determination of blood and brain tissue binding (equilibrium dialysis); format: in vitro ADME, Sprague Dawley rat; conditions: Sprague Dawley, 5 h at 37° C.; for fraction unbound at 5 h, 5 micromolar: 1:2 (w/v) in artificial CSF, rat brain homogenate, read-out: % FU Brain; for fraction unbound at 5 h, 0.5 micromolar: whole blood diluted 1:1 (v/v) with isotonic phosphate buffer, rat whole blood, read-out: % FU Blood
Procedure: Sprague Dawley rat whole blood, collected on the week of the experiment using K3-EDTA as an anti-coagulant, is diluted with isotonic phosphate buffer 1:1 (v/v). Sprague Dawley rat whole brain, stored frozen at −20° C., is thawed and homogenised in artificial cerebrospinal fluid (CSF) 1:2 (w/v).
An appropriate amount of test compound is dissolved in DMSO to give a 10 millimolar solution. Further dilutions, to obtain a 166.7 micromolar working solution are then prepared using 50% acetonitrile in MilliQ water. This working solution is used to spike the blood to obtain a final concentration of 0.5 micromolar in whole blood. Similarly, the working solution is used to spike brain samples to obtain a final concentration of 5 micromolar in whole brain. From these spiked blood and brain preparations, control samples (n=3), are immediately extracted and used to calculate the initial recovery of the test items.
150 microL of compound-free buffer (isotonic phosphate buffer for blood or artificial CSF buffer for brain) is dispensed in one half-well and 150 microL of spiked matrix (blood or brain) is loaded in the other half-well, with the two halves separated by a semi-permeable membrane. After an equilibration period of 5 h at 37° C., 50 microL of dialysed matrix (blood or brain) is added to 50 microL of corresponding compound-free buffer, and vice-versa for buffer, such that the volume of buffer to matrix (blood or brain) remains the same. Samples are then extracted by protein precipitation with 300 microL of acetonitrile containing rolipram (control for positive ionization mode) or diclofenac (control for negative ionization mode) as internal standards and centrifuged for 10 min at 3000 rpm. Supernatants are collected (100 microL), diluted with 27% AcN in MilliQ water (200 microL) and then injected into an HPLC-MS/MS or UPLC-MS/MS system to determine the concentration of test compound present.
Blood and brain tissue binding are then determined using the following formulas:
where Afu=apparent fraction unbound; Buffer=analyte/internal standard ratio determined in the buffer compartment; Blood=analyte/internal standard ratio determined in the blood compartment; Brain=analyte/internal standard ratio determined in the brain compartment.
where: fucr=Fraction unbound corrected; D=matrix dilution factor (D=2 for blood and D=3 for brain). then: […]

Cli rat [1] | Cli human [2] | fraction unbound at 5 h, 5 micromolar [3] | fraction unbound at 5 h, 0.5 micromolar [3] | SMILES | Kv3.1 pEC50 (Kv3.1)
1.3 mL/min/g | 0.6 mL/min/g | 0.005 | 0.013 | Cc1ccc(Oc2ccc(-n3c(=O)[nH]c4cnccc43)cn2)cc1OC(F)(F)F [RE13, reference compound] | 5.6**
1.5 mL/min/g | 1.7 mL/min/g | 0.006 | 0.007 | Cc1ccc(Oc2ccc(-n3c(=O)[nH]c4cncnc43)cn2)cc1OC(F)(F)F [RE12, reference compound] | 5.2*
